In the NIST ThermoML archive (doi:10.1016/j.jct.2014.10.021):

Assay: mn = molality of the nth substance listed, in mol/kg
Settings: 298.15 K, 101.33 kPa, Liquid, Alternating current cell with electrodes

CCCC[N+]1(C)CCCC1.O=S(=O)([O-])C(F)(F)C(F)(F)C(F)(F)C(F)(F)F [1-butyl-1-methylpyrrolidinium perfluorobutanesulfonate] + O
Settings | electrical conductivity [S/m]
m1 = 0.004597 | 0.0233
m1 = 0.005016 | 0.0254
m1 = 0.005639 | 0.0279
m1 = 0.006033 | 0.0293
m1 = 0.006491 | 0.0311
m1 = 0.007025 | 0.0343
m1 = 0.007655 | 0.0363
m1 = 0.008405 | 0.0397
m1 = 0.00933 | 0.0447
m1 = 0.0105 | 0.0483
m1 = 0.012 | 0.0554
m1 = 0.01274 | 0.0584
m1 = 0.01401 | 0.0642
m1 = 0.01533 | 0.0697
m1 = 0.01608 | 0.0731
m1 = 0.01691 | 0.0769
m1 = 0.01784 | 0.0804

CCCCCCCCCCCCn1cc[n+](C)c1.O=S(=O)([O-])C(F)(F)C(F)(F)C(F)(F)C(F)(F)F [1-dodecyl-3-methylimidazolium perfluorobutanesulfonate] + O
Settings | electrical conductivity [S/m]
m1 = 1.598e-05 | 0.00011
m1 = 2.066e-05 | 0.00016
m1 = 2.421e-05 | 0.00018
m1 = 2.925e-05 | 0.00022
m1 = 3.682e-05 | 0.0003
m1 = 4.977e-05 | 0.00041
m1 = 5.764e-05 | 0.00048
m1 = 7.583e-05 | 0.00063
m1 = 8.783e-05 | 0.0007
m1 = 0.0001043 | 0.00085
m1 = 0.0001122 | 0.00089
m1 = 0.0001213 | 0.00095
m1 = 0.000132 | 0.00101
m1 = 0.0001448 | 0.00109
m1 = 0.0001603 | 0.00118
m1 = 0.0001796 | 0.00129
m1 = 0.0001903 | 0.00136

CCCCCC[n+]1ccn(C)c1.O=S(=O)([O-])C(F)(F)C(F)(F)C(F)(F)C(F)(F)F [1-methyl-3-hexylimidazolium perfluorobutanesulfonate] + O
Settings | electrical conductivity [S/m]
m1 = 0.0006843 | 0.0038
m1 = 0.001003 | 0.0055
m1 = 0.001271 | 0.0072
m1 = 0.001953 | 0.0108
m1 = 0.002415 | 0.0133
m1 = 0.002944 | 0.0163
m1 = 0.003168 | 0.0174
m1 = 0.00367 | 0.0201
m1 = 0.004364 | 0.0235
m1 = 0.004701 | 0.0252
m1 = 0.005473 | 0.0291
m1 = 0.006118 | 0.0323
m1 = 0.006443 | 0.0339
m1 = 0.007009 | 0.0367
m1 = 0.007312 | 0.0382
m1 = 0.007666 | 0.04
m1 = 0.007936 | 0.0413
m1 = 0.008317 | 0.0431
m1 = 0.008657 | 0.0448
m1 = 0.009459 | 0.0484
m1 = 0.009734 | 0.0497
m1 = 0.01004 | 0.051
m1 = 0.01032 | 0.0523
m1 = 0.01057 | 0.0535
m1 = 0.01151 | 0.0567
m1 = 0.01188 | 0.0581
m1 = 0.01244 | 0.0611
m1 = 0.01292 | 0.0624
m1 = 0.01353 | 0.0644
m1 = 0.01416 | 0.0668
m1 = 0.01452 | 0.069

CCCCCCCCn1cc[n+](C)c1.O=S(=O)([O-])C(F)(F)C(F)(F)C(F)(F)C(F)(F)F [1-methyl-3-octylimidazolium perfluorobutanesulfonate] + O
Settings | electrical conductivity [S/m]
m1 = 0.0003013 | 0.0016
m1 = 0.0007028 | 0.0037
m1 = 0.001019 | 0.0054
m1 = 0.001249 | 0.0069
m1 = 0.00155 | 0.008
m1 = 0.001919 | 0.0102
m1 = 0.0022 | 0.0117
m1 = 0.002596 | 0.0136
m1 = 0.002912 | 0.0145
m1 = 0.003181 | 0.0157
m1 = 0.003623 | 0.017
m1 = 0.003988 | 0.0176
m1 = 0.004309 | 0.0183
m1 = 0.004701 | 0.0192
m1 = 0.005065 | 0.0202
m1 = 0.005333 | 0.0206
m1 = 0.005728 | 0.0209

CCCC[N+](CCCC)(CCCC)CCCC.O=S(=O)([O-])C(F)(F)C(F)(F)C(F)(F)C(F)(F)F [tetrabutylammonium perfluorobutanesulfonate] + O
Settings | electrical conductivity [S/m]
m1 = 0.002247 | 0.0136
m1 = 0.002283 | 0.0138
m1 = 0.002308 | 0.0139
m1 = 0.002329 | 0.014
m1 = 0.002356 | 0.0142
m1 = 0.002375 | 0.0143
m1 = 0.002407 | 0.0145
m1 = 0.002447 | 0.0147
m1 = 0.002477 | 0.0148
m1 = 0.002494 | 0.0149
m1 = 0.002516 | 0.015
m1 = 0.002534 | 0.0151
